Each structure is given as a SMILES string. Where two headings read alike, the source gives them in different places.

What is called Ki is the dissociation constant of the complex between target and ligand, obtained from inhibition or displacement.

In one assay the target is α5β3γ2 GABAA R (Homo sapiens, UniProt P18507+P31644). The assay is described as follows: Binding activity on GABAA R: inhibition of [3H]Ro15-1788 binding, α5 containing receptor. The gist of the method: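 Membranes from dexamethasone-induced (0.5 μM, 1 day) Ltk cells stably expressing α5β3γ2 receptors, 0.2 mg/ml protein, incubated with [3H]Ro15-1788 for 1 h at 4 °C in 50 mM KH2PO4/1 mM EDTA/0.2 M KCl, pH 7.4. Nonspecific binding with 10 μM diazepam; bound ligand by GF/B filtration and scintillation counting, triplicates.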
α5β3γ2 GABAA R, sequence (P31644 32-462): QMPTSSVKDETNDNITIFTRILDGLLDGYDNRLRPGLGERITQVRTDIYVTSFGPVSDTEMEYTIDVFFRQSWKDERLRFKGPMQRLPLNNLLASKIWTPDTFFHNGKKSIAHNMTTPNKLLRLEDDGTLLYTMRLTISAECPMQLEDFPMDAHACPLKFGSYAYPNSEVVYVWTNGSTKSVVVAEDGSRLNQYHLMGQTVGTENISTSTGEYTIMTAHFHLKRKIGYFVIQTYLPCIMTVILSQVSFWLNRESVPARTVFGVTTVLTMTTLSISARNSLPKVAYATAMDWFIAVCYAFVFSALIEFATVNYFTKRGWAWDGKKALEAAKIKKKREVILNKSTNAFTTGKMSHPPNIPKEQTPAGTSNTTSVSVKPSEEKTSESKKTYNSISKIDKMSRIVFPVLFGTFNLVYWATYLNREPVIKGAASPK
α5β3γ2 GABAA R, sequence (P28472 26-473 partner): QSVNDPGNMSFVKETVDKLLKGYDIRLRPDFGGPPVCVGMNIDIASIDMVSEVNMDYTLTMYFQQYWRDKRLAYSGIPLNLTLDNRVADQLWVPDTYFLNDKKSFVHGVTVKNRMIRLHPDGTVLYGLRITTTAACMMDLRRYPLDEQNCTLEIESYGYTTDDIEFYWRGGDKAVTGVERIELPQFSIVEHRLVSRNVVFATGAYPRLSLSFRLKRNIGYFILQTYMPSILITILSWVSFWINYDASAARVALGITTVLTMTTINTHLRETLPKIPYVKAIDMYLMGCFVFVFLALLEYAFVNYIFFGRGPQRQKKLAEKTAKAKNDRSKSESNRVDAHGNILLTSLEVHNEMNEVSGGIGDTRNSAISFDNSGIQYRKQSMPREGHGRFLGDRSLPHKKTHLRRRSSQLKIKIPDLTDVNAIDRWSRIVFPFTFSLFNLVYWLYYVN
α5β3γ2 GABAA R, sequence (P18507 40-475): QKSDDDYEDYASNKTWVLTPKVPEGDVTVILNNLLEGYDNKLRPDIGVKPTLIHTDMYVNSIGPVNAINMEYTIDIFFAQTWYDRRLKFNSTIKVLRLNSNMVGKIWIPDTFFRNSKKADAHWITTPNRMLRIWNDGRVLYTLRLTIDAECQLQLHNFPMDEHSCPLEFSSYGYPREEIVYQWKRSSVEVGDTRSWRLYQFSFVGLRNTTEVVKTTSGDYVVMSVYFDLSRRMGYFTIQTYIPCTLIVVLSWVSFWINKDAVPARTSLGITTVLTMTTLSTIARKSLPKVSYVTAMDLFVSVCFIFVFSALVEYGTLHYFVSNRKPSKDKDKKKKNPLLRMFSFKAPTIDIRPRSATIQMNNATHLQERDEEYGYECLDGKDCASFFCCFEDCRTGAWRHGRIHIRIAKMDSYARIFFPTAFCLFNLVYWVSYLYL

A further assay has as its target T1, GABAA R (α5β2γ2) (Homo sapiens, UniProt P18507+P31644).
T1 construct: expressed in transfected cells
The assay is described as follows: Positive allosteric modulator activity: potentiation of EC20 GABA current in oocytes. Type of assay: cell-based. As to the method: On day 1, 1 ng/32 nL of GABAA α5β2γ2 cDNA was injected into one oocyte. Test starts on day 2. The cDNA injected to the oocytes was a mix of alpha, beta and gamma, their ratio is 1:1:10 (by weight) and the total weight of the mixed 3 subunits to be injected in one oocyte was 1 ng in 32 nl volume. The injected oocytes can also be tested on day 3. In such case, the cDNA amount injected to the oocytes should be reduced by 20%.
Compounds of the present disclosure were tested using the following procedures.
8 oocytes were placed in 8 chambers of OpusXpress and superfused with Modified Barth's Saline (MBS) at 3 mL/min. Glass electrodes back-filled with 3M KCl (0.5-3 megaohms) were used. Membrane potential of oocytes was voltage-clamped at −60 mV. • 2).
Control Test (Diazepam or Methyl 3,5-Diphenylpyridazine-4-Carboxylate) • 1). New oocytes was used to run new test. • 2). […] Oocytes were washed with MBS for 5-10 min. • 4). […] Itest was divided by IGABA to obtain potentiation (%).
Test Compounds at Multiple Doses • 1). Repeat the above steps 1), 2) and 3) in the control test. • 2). […] Divide Itest by IGABA to obtain potentiation (%). • 3). Discard all tested oocytes, new oocytes were used and the above steps 1) and 2) were repeated to test second concentration of the same compound. Each oocyte was used for only one concentration test for a single test compound. The steps were repeated for other test compounds.

Setting [1] is: ranges of the column heads, [3H]Ro15-1788, Ltk cell membranes.
Setting [2] is: read-out: GABA α5 Functional Data: potentiation.
[3] abbreviates: read-out: GABA α5 Functional Data: potentiation, @ 100 nM, EC20 GABA, ranges of the column heads.

T1 sequence (P31644 32-462): as the sequence (P31644 32-462) above
T1 sequence (P47870 25-512 partner limits assumed): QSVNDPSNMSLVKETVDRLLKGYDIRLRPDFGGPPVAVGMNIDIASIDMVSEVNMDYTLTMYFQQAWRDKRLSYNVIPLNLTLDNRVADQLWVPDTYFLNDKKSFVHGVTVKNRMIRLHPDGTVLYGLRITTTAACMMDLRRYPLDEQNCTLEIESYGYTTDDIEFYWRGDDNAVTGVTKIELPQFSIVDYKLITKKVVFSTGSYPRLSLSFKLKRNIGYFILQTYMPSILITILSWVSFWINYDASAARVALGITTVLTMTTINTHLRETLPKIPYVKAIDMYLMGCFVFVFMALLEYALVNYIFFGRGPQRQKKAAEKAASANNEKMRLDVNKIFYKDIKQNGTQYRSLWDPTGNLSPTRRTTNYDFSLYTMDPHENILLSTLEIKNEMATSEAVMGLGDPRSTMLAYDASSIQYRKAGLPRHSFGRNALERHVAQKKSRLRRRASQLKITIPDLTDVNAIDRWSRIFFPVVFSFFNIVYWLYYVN
T1 sequence (P18507 40-475): as the sequence (P18507 40-475) above

The compound `CC(C)c1noc(-c2ncn3c2Cc2cn(CC4CCOCC4)nc2-c2cc(Cl)ccc2-3)n1` [Compound 251] gave a Ki on α5β3γ2 GABAA R (setting [1]) of under 100 nM. Moreover, on GABAA R (α5β2γ2) (setting [2]), the activation at 0.1 µM fell in the range of 5 to 20%.

On α5β3γ2 GABAA R, `CC(C)c1noc(-c2ncn3c2Cc2cn(Cc4ccccn4)nc2-c2cc(Cl)ccc2-3)n1` [Compound 99] showed a Ki of under 100 nM. The activation at 0.1 µM at GABAA R (α5β2γ2) (setting [2]) lay within 20 to 50%.

`COc1ccc2c(c1)-c1nn(C)cc1Cc1c(-c3noc(C4(F)CC4)n3)ncn1-2` [Compound 205] showed a Ki on α5β3γ2 GABAA R of under 100 nM. Moreover, at GABAA R (α5β2γ2) (setting [3]), the activation at 0.1 µM lay in the range of 20 to 50%.

`COC(C)(C)c1noc(-c2ncn3c2Cc2cn(CC4CCCO4)nc2-c2cc(Cl)ccc2-3)n1` (stereo not drawn) [Compound 280]: at α5β3γ2 GABAA R, the Ki was under 100 nM. In addition, the activation at 0.1 µM on GABAA R (α5β2γ2) (setting [3]) lay in the range of 20 to 50%.

Take `Cn1cc2c(n1)-c1cc(Cl)ccc1-n1cnc(-c3nc(C4CCOC4)no3)c1C2` (stereo not drawn) [Compound 134]: the Ki at α5β3γ2 GABAA R is under 100 nM. Besides, the activation at 0.1 µM at GABAA R (α5β2γ2) (setting [3]) fell in the range of 20 to 50%.

Take `COc1ccc2c(c1)-c1[nH]ncc1Cc1c(-c3nc(C4CCOC4)no3)ncn1-2` (stereo not drawn) [Compound 100]: at α5β3γ2 GABAA R, the inhibition constant (Ki) is under 100 nM. For the same compound, at GABAA R (α5β2γ2) (setting [3]), the activation at 0.1 µM fell in the range of 5 to 20%.

Turning to `COc1ccc2c(c1)-c1[nH]ncc1Cc1c(-c3noc(C)n3)ncn1-2` [Compound 88], the Ki at α5β3γ2 GABAA R is under 100 nM. In addition, the activation at 0.1 µM at GABAA R (α5β2γ2) (setting [3]) was in the range of 5 to 20%.

Turning to `COc1ccc2c(c1)-c1nn(C)cc1Cc1c(-c3noc(C(F)(F)F)n3)ncn1-2` [Compound 130], the Ki on α5β3γ2 GABAA R was under 100 nM. Also, at GABAA R (α5β2γ2) (setting [3]), the activation at 0.1 µM was over 50%.

On α5β3γ2 GABAA R, `Cn1cc2c(n1)-c1cc(Cl)ccc1-n1cnc(-c3nc([C@@H]4CCOC4)no3)c1C2` [Compound 261] had a Ki of under 100 nM. The activation at 0.1 µM at GABAA R (α5β2γ2) (setting [3]) lay in the range of 5 to 20%.

With `CCn1cc2c(n1)-c1cc(OC)ccc1-n1cnc(-c3nc(COC)no3)c1C2` [Compound 236], the Ki on α5β3γ2 GABAA R was under 100 nM. For the same compound, the activation at 0.1 µM at GABAA R (α5β2γ2) (setting [3]) was in the range of 20 to 50%.

`CCOCc1nc(-c2ncn3c2Cc2cn(C)nc2-c2cc(Cl)ccc2-3)no1` [Compound 243] yielded a Ki on α5β3γ2 GABAA R (setting [1]) of under 100 nM. In addition, the activation at 0.1 µM at GABAA R (α5β2γ2) (setting [2]) is 5 to 20%.

On α5β3γ2 GABAA R, `COc1ccc2c(c1)-c1nn(C)cc1Cc1c(-c3noc(COC(C)(C)C)n3)ncn1-2` [Compound 296] gave a Ki of under 100 nM. Besides, the activation at 0.1 µM at GABAA R (α5β2γ2) (setting [3]) fell in the range of 20 to 50%.

On α5β3γ2 GABAA R (setting [1]), `COc1ccc2c(c1)-c1[nH]ncc1Cc1c(-c3noc(C(F)(F)F)n3)ncn1-2` [Compound 87] registered a Ki of under 100 nM. Also, on GABAA R (α5β2γ2) (setting [2]), the activation at 0.1 µM lay within 20 to 50%.

On α5β3γ2 GABAA R, `COCC1COC(c2ncn3c2Cc2cn(C)nc2-c2cc(Cl)ccc2-3)=N1` (stereo not drawn) [Compound 189] came in with a Ki of under 100 nM. Moreover, at GABAA R (α5β2γ2) (setting [3]), the activation at 0.1 µM lay in the range of 20 to 50%.

Turning to `COc1ccc2c(c1)-c1c(cnn1CC1CCOC1)Cc1c(-c3nc(C4CC4)no3)ncn1-2` (stereo not drawn) [Compound 249], on α5β3γ2 GABAA R, the Ki is under 100 nM. For the same compound, the activation at 0.1 µM on GABAA R (α5β2γ2) (setting [3]) was in the range of 5 to 20%.

Turning to `Cn1cc2c(n1)-c1cc(Cl)ccc1-n1cnc(-c3cnn(Cc4cccnc4)c3)c1C2` [Compound 208], the Ki on α5β3γ2 GABAA R is under 100 nM. On GABAA R (α5β2γ2) (setting [3]), the activation at 0.1 µM was in the range of 5 to 20%.

As for `Clc1ccc2c(c1)-c1[nH]ncc1Cc1c(-c3nc(C4CCOC4)no3)ncn1-2` (stereo not drawn) [Compound 108], the Ki at α5β3γ2 GABAA R was under 100 nM. Moreover, on GABAA R (α5β2γ2) (setting [3]), the activation at 0.1 µM fell in the range of 20 to 50%.

`FC(F)(F)c1nc(-c2ncn3c2Cc2cn[nH]c2-c2cc(Cl)ccc2-3)no1` [Compound 85] showed a Ki on α5β3γ2 GABAA R of under 100 nM. In addition, the activation at 0.1 µM at GABAA R (α5β2γ2) (setting [3]) lay in the range of 5 to 20%.

At α5β3γ2 GABAA R (setting [1]), `Clc1ccc2c(c1)-c1[nH]ncc1Cc1c(C#Cc3ccccn3)ncn1-2` [Compound 94] registered a Ki of under 100 nM. Further, on GABAA R (α5β2γ2) (setting [2]), the activation at 0.1 µM was in the range of 20 to 50%.

In the case of `COc1ccc2c(c1)-c1[nH]ncc1Cc1c(-c3nc(C(C)(C)C)no3)ncn1-2` [Compound 11], the Ki at α5β3γ2 GABAA R was under 100 nM. The activation at 0.1 µM on GABAA R (α5β2γ2) (setting [3]) lay in the range of 5 to 20%.

With `Cn1cc2c(n1)-c1cc(Cl)ccc1-n1cnc(-c3nc(C4COC4)no3)c1C2` [Compound 237], the Ki on α5β3γ2 GABAA R was under 100 nM. Moreover, the activation at 0.1 µM on GABAA R (α5β2γ2) (setting [3]) is 20 to 50%.

Turning to `FC(F)(F)c1noc(-c2ncn3c2Cc2cn(CC4CCOC4)nc2-c2cc(Cl)ccc2-3)n1` (stereo not drawn) [Compound 200], the Ki at α5β3γ2 GABAA R (setting [1]) was under 100 nM. Moreover, the activation at 0.1 µM on GABAA R (α5β2γ2) (setting [2]) was 20 to 50%.

At α5β3γ2 GABAA R, `COc1ccc2c(c1)-c1nn(C)cc1Cc1c(-c3nc(C4COC4)no3)ncn1-2` [Compound 239] registered a Ki of under 100 nM. Further, the activation at 0.1 µM on GABAA R (α5β2γ2) (setting [3]) fell in the range of 20 to 50%.

For `COc1ccc2c(c1)-c1nn(CC3CCCO3)cc1Cc1c(-c3nnc(C(F)(F)F)o3)ncn1-2` (stereo not drawn) [Compound 302], the Ki at α5β3γ2 GABAA R was under 100 nM. In addition, on GABAA R (α5β2γ2) (setting [3]), the activation at 0.1 µM was in the range of 5 to 20%.

The record behind these values is patent US20240132513A1, “BENZAZEPINE DERIVATIVES, COMPOSITIONS, AND METHODS FOR TREATING COGNITIVE IMPAIRMENT” (AGENEBIO, INC., priority 2022, published 2024).
